From ChEMBL document CHEMBL5370692, “Synthesis and Evaluation of Small Molecule Inhibitors of the Androgen Receptor N-Terminal Domain” (ACS Med Chem Lett, 2023)
pIC50: −log10 of the molar value.

Target: T1, Androgen receptor (Homo sapiens, UniProt P10275)
T1 sequence (P10275 whole entry): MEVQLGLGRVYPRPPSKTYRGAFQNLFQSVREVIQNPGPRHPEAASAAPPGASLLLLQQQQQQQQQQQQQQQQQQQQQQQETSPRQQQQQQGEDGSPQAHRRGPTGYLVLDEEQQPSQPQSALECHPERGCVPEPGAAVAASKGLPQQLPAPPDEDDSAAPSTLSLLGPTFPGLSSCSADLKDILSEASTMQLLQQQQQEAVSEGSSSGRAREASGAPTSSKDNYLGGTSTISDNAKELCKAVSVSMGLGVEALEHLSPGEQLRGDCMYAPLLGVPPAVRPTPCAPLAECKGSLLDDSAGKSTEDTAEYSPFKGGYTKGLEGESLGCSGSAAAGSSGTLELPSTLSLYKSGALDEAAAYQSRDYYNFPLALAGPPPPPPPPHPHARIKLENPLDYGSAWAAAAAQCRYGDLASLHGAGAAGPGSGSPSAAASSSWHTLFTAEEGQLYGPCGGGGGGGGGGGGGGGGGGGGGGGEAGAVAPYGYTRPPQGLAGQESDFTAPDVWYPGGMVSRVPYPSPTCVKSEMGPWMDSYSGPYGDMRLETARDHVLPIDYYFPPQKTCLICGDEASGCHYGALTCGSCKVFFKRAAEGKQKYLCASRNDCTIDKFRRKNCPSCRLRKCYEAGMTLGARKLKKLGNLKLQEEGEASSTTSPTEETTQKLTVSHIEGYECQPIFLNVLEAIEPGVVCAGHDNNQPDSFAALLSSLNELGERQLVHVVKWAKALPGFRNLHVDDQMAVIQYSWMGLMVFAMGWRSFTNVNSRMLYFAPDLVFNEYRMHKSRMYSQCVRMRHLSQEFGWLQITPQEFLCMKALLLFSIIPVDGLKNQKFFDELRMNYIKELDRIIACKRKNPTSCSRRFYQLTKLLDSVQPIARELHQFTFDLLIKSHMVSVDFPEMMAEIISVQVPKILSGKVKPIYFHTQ
Test: Inhibition of androgen receptor in human VCaP cells expressing GRE-2-TATA-Luc co-expressing firefly luciferase incubated for 24 hrs in presence of DHT by luciferase reporter gene assay
Format: cell-based

- pIC50: 6.10
Compound: CSc1ccc(C(N)=O)cc1-c1ccc2cnccc2c1
